We go through five compounds from paper PMC11261779, “Structural studies of WDR5 in complex with MBD3C WIN motif reveal a unique binding mode” (The Journal of Biological Chemistry, 2024).

No end group written: not given here.

Assay [1] concerns WDR5. As to conditions: cited from earlier work. An excerpt: (§1) WDR5, a well-established core scaffolding protein found in histone methyltransferase complexes MLL1-4 and SET1A/B ([1], [2]), was initially characterized as an epigenetic histone “writer” to recognize histone H3 lysine 4 (H3K4) and is essential for H3K4 di- and tri-methylation (H3K4me2 and H3K4me3) to activate gene transcription ([1], [3], [4], [5], [6]). Moreover, the interaction between WDR5 and the H3 tail could be regulated by the methylation of H3 arginine 2 (H3R2) ([7], [8]). It is also present in the nonspecific lethal (NSL) complex of histone acetyltransferase, where it is responsible ...

For assay [2], the system named is patient-derived mouse models. As to conditions: cited from earlier work.
Description: as §1

Assay [3] concerns the target T1, WDR5 (Mus musculus, UniProt P61965).
T1 construct: to titrate the truncated WDR5 construct (residues 24–334); GST (N, cleaved yes); made in house; host or cells: Escherichia coli BL21 (DE3)
The assay is described as follows: ITC of MBD3C peptides titrated into wild-type WDR5 (residues 24–334). The following applies: MicroCal PEAQ-ITC, 20 °C, 20 mM Tris-HCl, 200 mM NaCl, pH 7.5, WDR5 WT 44.5 μM, peptide 0.5–1.0 mM, single binding site model, triplicate, N.D. = not detectable binding. The text has this:
To validate their findings and determine the dissociation constant (Kd) between WDR5 and MBD3C40-51 more accurately, we performed ITC experiments using a synthetic MBD3C peptide spanning 40 to 51 to titrate the truncated WDR5 construct (residues 24–334).
The DNA fragment encoding the mouse WDR5 seven tandem WD-40 repeats (residues 24–334) was amplified via PCR from the human brain and bone marrow cDNA library and cloned into the pGEX-4T1 vector modified with an N-terminal GST tag and a TEV cleavage site (ENLYFQ/GSHM) (where ‘/’ indicates the cleavage site). All WDR5 mutants were generated using a MutanBEST kit and subsequently confirmed through DNA sequencing. The proteins were expressed in Escherichia coli BL21 (DE3) cells (Novagen) that were cultured in Luria–Bertani medium at 37 °C. The recombinant proteins were induced by 0.2 mM isopropyl β-D-1-thiogalactopyranoside (IPTG) upon reaching an optical density at 600 nm (OD600 nm) 0.8, then transferred to 16 °C and incubated for 18 h. Cells were harvested by centrifugation and resuspended in Buffer A (20 mM Tris-HCl, 500 mM NaCl, pH 8.0), supplemented with DNAaseI (10U) and protein protease inhibitor (Roche, 1 tablet dissolved in 1 ml sterile water), and then lysed by a high-pressure cell homogenizer. The cell debris was removed by centrifugation, and the supernatant was subjected to a 6-h incubation at 4 °C with glutathione Sepharose resins (GE Healthcare) The resins bound by GST-tagged proteins were resuspended in 20 ml Buffer A. Then, the GST tag was removed through digestion with ∼1 mg TEV protease (purified in-house) at 4 °C overnight. […]
(§2) ITC assays were performed on a Microcal PEAQ-ITC instrument (Malvern Panalytical) at 20 °C. Proteins were quantified by absorbance at 280 nm and diluted to 44.5 μM with Buffer D. The peptides were adjusted to 0.5 to 1.0 mM with the same buffer. […]

For another assay, the target named is T2, WDR5^D107R (Mus musculus, UniProt P61965, D107R).
T2 construct: the mouse WDR5 seven tandem WD-40 repeats (residues 24–334); GST (N, cleaved yes); made in house; host or cells: Escherichia coli BL21 (DE3)
The assay is described as follows: ITC of MBD3C peptide titrated into WDR5 D107R mutant. The following applies: 20 °C, 200 mM NaCl, pH 7.5, WDR5 D107R, N.D. = not detectable binding.
Description: To validate the importance of the aforementioned residues in the interactions between MBD3C and WDR5, we conducted mutations on Arg43, Arg45, and Phe47 residues within MBD3C and the corresponding residues within WDR5. […] In addition, MBD3C carrying R43K mutation weakens the interaction with WDR5 by ∼9.1-fold (Figs. 2D, S2, and Table 2). […] The Arg-Asp specific interaction was also observed in a previously determined WDR5-KANSL1 complex, thereby contributing to the high binding affinity of KANSL1 for WDR5 ([9]). […] In comparison to the wild-type MBD3C, the dissociation constants were approximately 4-fold and 6.8-fold higher when Phe47 was mutated to alanine and histidine (Figs. 2D, S2, and Table 2), respectively.
The DNA fragment encoding the mouse WDR5 seven tandem WD-40 repeats (residues 24–334) was amplified via PCR from the human brain and bone marrow cDNA library and cloned into the pGEX-4T1 vector modified with an N-terminal GST tag and a TEV cleavage site (ENLYFQ/GSHM) (where ‘/’ indicates the cleavage site). All WDR5 mutants were generated using a MutanBEST kit and subsequently confirmed through DNA sequencing. […]
as §2

`Cc1ncsc1-c1ccc([C@H](C)NC(=O)[C@@H]2C[C@@H](O)CN2C(=O)[C@@H](NC(=O)CNC(=O)c2ccc(F)c(-c3ccc(N4C[C@@H](C)N(C)[C@@H](C)C4)c(NC(=O)c4c[nH]c(=O)cc4C(F)(F)F)c3)c2)C(C)(C)C)cc1` [MS67]: in the assay on WDR5 [1], the “reduction of WDR5 levels in cells” value was “effectively reduced WDR5 levels”. Also, the tumor growth entry in assay [2] is reported as “suppressed tumor growth”. For the compound “GAAACRVFSPQG [MBD3C^R43A, MBD3C 40–51 peptide with R43A mutation]”, the Kd result on WDR5 [3] is given as “no binding was observed”.

With “GAADCRVFSPQG [MBD3C^R43D, MBD3C 40–51 peptide with R43D mutation]”, the Kd entry at WDR5 [3] was “no binding was observed”. Regarding “GAAECRVFSPQG [MBD3C^R43E, MBD3C 40–51 peptide with R43E mutation]”, on WDR5 [3], the Kd result is “no binding was observed”. Regarding GAARCRVFSPQG [MBD3C], at WDR5^D107R, the Kd result is given as “No interaction was observed”.
